Source: patent US4543254A, “Antiphlogistic/antipyretic/analgesic agents containing theobromine or theophylline derivatives as active ingredient” (Eisai Co., Ltd., priority 1982, dated 1985)
Like-named read-outs stand apart in the source and are kept apart here.

How the values were obtained:
[1] = Analgesic activity: acetic acid writhing method (mice); assay type: in vivo, ddy-strain male mice; conditions: Mus musculus, po
Method: (a) Acetic acid writhing method^1
A 0.7% acetic acid solution was injected intraperitoneally to ddy-strain male mice (20 to 25 g) in an amount of 0.1 ml per 10 g mouse body weight to cause a writhing syndrome typified by stretching of the hind legs. The inhibitory action of each test compound against said symptom was observed as a measure of the analgesic activity of the compound.
(1) Hendershot, L. C. and Forsaith, J.: J. Pharmacol. Exp. Ther., 125, 237 (1959).
(2) Litchfield, Jr., J. T. and Wilcoxon, F.: J. Pharmacol. Exp. Ther., 96, 99 (1949).

[2] = Analgesic activity: bradykinin-induced pain response (rats); assay type: in vivo, SD male rats; conditions: Rattus norvegicus, po, read-out: Analgesic activity ED50
Method: (B) Bradykinin-induced pain response^3,4
A polyethylene tube was inserted into a common right carotid artery of SD male rats (250 to 350 g) and 0.5 microngram per 0.1 ml of bradykinin was injected into the artery through said tube. Response induced by bradykinin such as flexin of the right forelimb, dextro-rotation of the head and rearing were considered as being indices of pain response, and the analgesic action of each test compound was determined by observing its inhibition of responses such symptoms.
(3) T. Abe, T. Kaneko and H. Takagi: Japan Pharm. Soc. Bul., 67, 9-14 (1971)
(4) G. F. Blane: J. Pharma. Pharmacol., 19, 367 (1967)

[3] = Antipyretic activity: dry yeast-induced fever (rats); assay type: in vivo, SD male rats; conditions: Rattus norvegicus, po, read-out: ED, effective dose for reducing the fever by more than 1° C. when the compound action is at the peak
Method: A 2% suspension of dry yeast was injected sub-Cutaneously to SD male rats of 250 to 300 g body weight in an amount of 2 ml/animal to cause a fever, and 4 hours later, the compounds of this invention and control drugs were administered orally. The rectal temerature of each rat was measured periodically, and the dosage of each compound required to reduce the fever by more than 1° C. at the peak of its activity was determined.

[4] = Antiphlogistic activity: carrageenin paw edema (rats); assay type: in vivo, Wistar rats; conditions: Rattus norvegicus, po, 3 hours
Method: (3) Antiphlogistic activity^5
Each test compound of this invention was administered orally to Wistar rats of about 300 g body weight, and 30 minutes later 0.05 ml of a 1% carrageenin solution was injected into a paw of each rat. After three hours, the paw volume was measured to determine the degree of edema formation and the 30% effective dose (ED30) was calculated from the inhibition rate relative to a control group.
(5) R. Vinegar et al: J. Pharmacol. Exp. Ther., 166, 96 (1969)

in vivo = conditions: po, p.o., read-out: Safety margin (LD50/ED50)
Method: Ten mice were used for each dose and morality was determined for 3 days after administration of each test compound of the invention. In the case of the rats, 5 rats were used for each dose and morality was determined 7 days after administrations.

SD male rats = conditions: p.o., control drugs, given in Japan National Formulary, 6th Ed. (1982); cited from earlier work
ddy male mice = conditions: p.o., control drugs, given in Japan National Formulary, 6th Ed. (1982); cited from earlier work
[5] = rats, p.o., bradykinin-induced pain

Row | Compound | ED50 [1] [mg/kg] | ED50 [2, 5] [mg/kg] | minimal effective dose [3] [mg/kg] | ED30 [4] [mg/kg] | selectivity ratio (in vivo; mouse, mice) | selectivity ratio (in vivo; rat, rats) | ED50 [2] [mg/kg] | Acute toxicity LD50 (SD male rats) | Acute toxicity LD50 (ddy male mice) [mg/kg]
1 | Cn1cnc2c1c(=O)n(CCCN1CCN(c3ccc(Cl)c(Cl)c3)CC1)c(=O)n2C [Compound A', 1-(3-(4-(3,4-dichlorophenyl)piperazinyl-(1))-n-propyl)theobromine] | 7.2 | 40 | 40 | 25 |  |  |  |  | 
2 | Cn1c(=O)c2c(ncn2CCCCN2CCN(c3ccc(F)cc3)CC2)n(C)c1=O [Compound A] | 10 | 47 | 10 | 10 | 34 | 7.5 to 10.6 |  |  | 
3 | Cc1cccc(N2CCN(CCn3c(=O)c4c(ncn4C)n(C)c3=O)CC2)c1C [Compound B', 1-(2-(4-(2,3-dimethylphenyl)piperazinyl-(1))-ethyl)theobromine.2HCl] | 2.6 | 20 |  |  | 230 | ≥ 100 |  |  | 
4 | Cn1c(=O)c2c(ncn2CCCCCN2CCN(c3ccc(Cl)cc3)CC2)n(C)c1=O [Compound B] | 13.8 | 40 | 40 | 50 | 51 | 8.8 to 12.5 |  |  | 
5 | Cn1cnc2c1c(=O)n(CCCN1CCN(c3ccccc3Cl)CC1)c(=O)n2C [Compound C', 1-(3-(4-o-chlorophenylpiperazinyl-(1))-n-propyl)theobromine.2HCl] | 3.3 |  |  | 10 | 61 |  |  |  | 
6 | Cc1ccc(N2CCN(CCCn3cnc4c3c(=O)n(C)c(=O)n4C)CC2)cc1C [Compound C] | 13.3 | 57 | 10 |  | > 60 | 13.6 |  |  | 
7 | COc1ccccc1N1CCN(CCCCn2c(=O)c3c(ncn3C)n(C)c2=O)CC1 [Compound D', 1-(4-(4-o-methoxyphenylpiperazinyl-(1))-n-butyl)theobromine.2HCl] | 3.1 |  |  |  | 130 to 258 |  |  |  | 
8 | Cn1c(=O)c2c(ncn2CCCCN2CCN(c3ccc(Cl)cc3)CC2)n(C)c1=O [Compound D] | 26 |  | 40 | 25 | 22 | 7.6 | 68 |  | 
9 | Cn1cnc2c1c(=O)n(CCCCN1CCN(c3ccc(F)cc3)CC1)c(=O)n2C [Compound E', 1-(4-(4-p-fluorophenylpiperazinyl-(1))-n-butyl)theobromie.2HCl] | 7.8 |  |  | 25 | 26 |  |  |  | 
10 | Cn1cnc2c1c(=O)n(CCCCN1CCN(c3ccc(Cl)c(Cl)c3)CC1)c(=O)n2C [Compound F', 1-(4-(4-(3,4-dichlorophenyl)piperazinyl-(1))-n-butyl)theobromine.2HCl] | 7.8 |  |  |  | 51 to 103 |  |  |  | 
11 | Cn1c(=O)c2c(ncn2CCCCCN2CCN(c3cccc(C(F)(F)F)c3)CC2)n(C)c1=O [Compound F] | 27.1 | 63 | 10 | 25 | ≥ 30 | 10.5 |  |  | 
12 | Cc1cccc(N2CCN(CCCCCn3c(=O)c4c(ncn4C)n(C)c3=O)CC2)c1 [Compound G', 1-(5-(4-m-methylphenylpiperazinyl-(1))-n-pentyl)theobromine.2HCl] | 13.5 |  |  | 25 | 22 |  |  |  | 
13 | COc1cc(C)nc(-n2nc(C)cc2OC)n1 [Control drug I, 4-methoxy-2-(5-methoxy-3-methylpyrazol-1-yl)-6-methylpyrimidine, reference compound] | 240 | ≥ 160 | 40 |  | 4.3 | ≤ 3 |  | 526 mg/kg | 
14 | O=C(Cn1c(=O)sc2ccc(Cl)cc21)N1CCN(CCO)CC1 [Control drug II, 4-((5-chloro-2-oxo-3(2H)-benzothiazolyl)acetyl)-1-piperazineethanol, reference compound] | 66 | ≥ 160 | 40 |  | 8.5 | ≤ 23 |  | 3,600 mg/kg | 564
15 | OC(CN1CCCCC1)c1cc(-c2ccccc2)on1 (stereo not shown) [Control drug III, 3-(1-hydroxy-2-piperadinoethyl)-5-phenylisoxazole, reference compound] | 120 | 160 | 160 |  | 5.1 | 12 |  | 1,978 mg/kg | 612
